Assay results as given in patent US20260002124A1, “ENHANCING NEURONAL DIFFERENTIATION OF VENTRAL MIDBRAIN NEURAL PROGENITOR CELLS” (Novo Nordisk A/S, priority 2022, published 2026).
Where “and” joins values, the source holds several entries; their conditions need not be identical. Equal values may be shown once.

Columns and labels:
Format in all cases: cell-based, human
[1] = test system: ventral midbrain floor plate NSCs; assay: Late in vitro administration of MEKi and/or NOTCHi (DIV22-29), FCM/ICC marker expression
Experimental: (§1) hESCs were differentiated to ventral midbrain neurons according to an established protocol (Nolbrant et al., 2017; Kirkeby et al., 2017). In brief, hESC were grown to 70-90% confluency, then disassociated with 0.5 mM EDTA. The cells were seeded at 10^4 cells/cm^2 in cell culture flasks or plates coated with human laminin-111 (1.2 μg/cm^2; BioLamina) and immediately put into contact with differentiation media. The cells were exposed to N2-based media from days in vitro (DIV) 0-8; 50% DMEM/F12+Glutamax (Gibco), 50% Neurobasal (Gibco), 1% N2 supplement CTS (Thermo Fisher Scientific), 5% GlutaMAX (Thermo Fisher Scientific), 0.2% P-S (Thermo Fisher Scientific) and supplemented with SMAD inhibitors SB431542 (10 μM; Miltenyi Biotec), Noggin (100 ng/mL; Miltenyi Biotec) for neural induction, Sonic Hedgehog C24II (SHH; 500 ng/mL; Miltenyi Biotec) for ventral fate, GSK3B inhibitor CHIR99021 (CHIR; 0.5-0.6 μM; Miltenyi Biotec) to promote caudalization. N2-based media was supplemented with fibroblast growth factor 8b (FGF8b; 100 ng/mL; Miltenyi Biotec) from DIV9-11. At DIV11, the cells were dissociated with accutase (Thermo Fisher Scientific) and seeded at 0.8×10^6 cells/[…] in a cell culture flask or plate coated with human laminin-111 (1.2 μg/cm^2) in DIV11-16 media (Neurobasal, 2% B27 supplement without vitamin A CTS (Thermo Fisher Scientific), 5% GlutaMAX, 0.2% P-S and supplemented with FGF8b (100 ng/mL), L-ascorbic acid (AA; 200 μM; Sigma), human Brain Derived Neurotrophic Factor (BDNF; 20 ng/mL; Miltenyi Biotec)) supplemented with Y-27632 (Miltenyi Biotec) at 10 μM. At day in vitro (DIV) 16, the cells were dissociated with accutase and either cryopreserved, or re-seeded in cell culture flasks/plates coated with poly-L-ornithine (0.002%) and Laminin-521 (1.5 μg/cm^2) in B27 media supplemented with BDNF (20 ng/mL), GDNF (20 ng/mL), L-ascorbic acid (200 μM), dcAMP (500 μM), DAPT (10 μM), and Y-27632 (10 μM) for extended in vitro culture allowing further differentiation and maturation of ventral midbrain neural stem cells into neurons.
(§2) Ventral midbrain dopaminergic (vmDA) progenitor cells were generated from hESCs in 2D in vitro culture as described in Example 1 and using reagents described in Table 1. At various days after initiating the differentiation the cell culture was dissociated into a single cell suspension using Accutase, counted on a NucleoCounter NC-200 and collected in N2 media (CTS™ Neurobasal™ medium supplemented with 1% CTS™ N-2 supplement). Dead cells were labelled using a LIVE/DEAD™ Fixable Near-IR Dead Cell Stain Kit. The cells were then resuspended in B27 media (CTS™ Neurobasal™ medium supplemented with 1% B-27™ supplement without vitamin A, 2 mM GSutaMAX™, 60 U/mL Penicillin-Streptomycin, 10 μM ROCK inhibitor). Cells were then fixed and permeabilized using the BD Transcription Factor Buffer Set (BD Biosciences) according to the manufacturer's instructions. The fixed cells were then stained with fluorescently conjugated antibodies, and the samples acquired on a BD LSR Fortessa or B FACSymphony (BD Biosciences). The fcs files were exported and analyzed in FlowJo 10.5.03.
(§3) To determine whether a cell was considered positive in its protein expression of a marker, gates were set as routinely done in the field at the edge of the fluorescent signal of a negative control sample. Examples of negative control samples used included unstained controls, fluorescence minus one (FMO) controls and most preferably biological negative control samples; all cells present above these threshold gates when experimental samples were run were considered positive. Antibodies: FOXA2 (1:320, Miltenyi), OTX2 (1:320, Miltenyi), SOX2 (1:40, B), LMXTA (1:2500, Novo Nordisk production), […] (1:40, AtlasAntibodies), ASCL1 (1:2500, Mitlenyi), INA (1:3000, AtlasAntibodies). […]

VM NPCs = assay: FCM profile of VM neural cells at DIV22 after earlier NOTCHi treatment DIV16-22
Experimental: as §1, §2, §3

[2] = test system: ventral midbrain floor plate NSCs; assay: Early in vitro administration of MEKi and/or NOTCHi (DIV16-22), flow cytometry marker expression
Experimental: as §1, §2, §3

[3] = test system: ventral midbrain floor plate NSCs; assay: Immunofluorescence staining after early administration and extended differentiation (DIV35); conditions: early administration; IF staining, extended differentiation DIV35
Experimental: (§4) Following compound administration and flow cytometry analysis performed in FIGS. 2 and 3, all groups were differentiated for a further 11 days in vitro and then were fixed in 4% paraformaldehyde and stained with DAPI to identify all cell nuclei and primary antibodies against SOX2 (1:300), Ki-67 (1:250), LMX1A (1:3000), INA (1:200), tyrosine hydroxylase (TH; 1:500) and COL1A1 (1:300) followed by fluorescently labelled secondary antibodies. Images were acquired on an Olympus IX81 microscope using CellSens software. The immunofluorescence (IF) staining confirmed the flow cytometry results of FIG. 3 with extended differentiation showing that treatment with a NOTCHi alone reduced, compared to untreated controls, the amount of NSCs identified by SOX2 (FIG. 4A-D) and proliferative cells identified by KI67 (FIG. 5B,D) while maintaining the amount of neuronal cells identified by INA (FIG. 5A,C).
(§5) Cells were fixed in 4% paraformaldehyde (Alfa Aesar) for 10 minutes at room temperature. Unspecific antibody binding was blocked by incubating cells with PADT buffer; phosphate-buffered saline (PBS) without Ca2+ and Mg2+ (Gibco) with 0.02% sodium azide solution (Ampliqon), 0.5% Triton X-100 (Sigma), and 5% Donkey serum (Jackson Labs) for 30 minutes, followed by overnight incubation with primary antibodies (see Table X) at 4° C. The cells were washed 3 times with PBS without Ca2+ and Mg2+, blocked with PADT buffer for 15 minutes, and incubated with fluorophore-conjugated secondary antibodies (see Table X) for 2 hours at room temperature, protected from light. The cells were then counterstained with DAPI (10 μg/mL) for 5 minutes at room temperature, washed 3 times with PBS without Ca2+ and Mg2+, and stored at 4° C. in PBS without Ca2+ and Mg2+ supplemented with 0.02% sodium azide. Images were captured with a Zeiss Axio Observer microscope equipped with an Axiocam 512 camera and ZEN 3.2 (Pro) software (Zeiss).

[4] = test system: ventral midbrain floor plate NSCs; assay: Immunofluorescence staining after late administration and extended differentiation (DIV40); conditions: late administration; IF staining, extended differentiation DIV40
Experimental: as §4, with “Figure,” for “FIGS. 2 and 3,”, “(1:1000),” for “(1:3000), INA (1:200),”, “results” for “results of FIG. 3”, “12A-D)” for “4A-D)”, “13B,D)” for “5B,D)”, “13A,C).” for “5A,C).”
as §5

[5] = late administration DIV22-29, FCM/ICC, % of total cells, replicates #1-#4
[6] = late administration, result in words
[7] = DIV22 after NOTCHi (DAPT) DIV16-22 every 48-72 hrs, flow cytometry, replicates #1-#11
[8] = DIV22 after NOTCHi DIV16-22, Mean of #1-#11
[9] = early treatment DIV16-22, % of total viable cells, replicates #1-#4
[10] = early treatment, result in words

`C[C@H](NC(=O)Cc1cc(F)cc(F)c1)C(=O)NC(C(=O)OC(C)(C)C)c1ccccc1` (stereo partly shown) [NOTCHi] was tested, and the FOXA2 expressing cells [1, 5] was 81.8% and 90.2% and 68% and 92.2%, the “INA expressing cells (neuronal marker)” value [1, 5] was 35.4% and 61.5% and 74.1% and the “Ki67 expressing cells (proliferative marker)” value [1, 5] was 21.3% and 1.65% and 3.87% and 2.98%. For the same compound, the LMX1A expressing cells [1, 5] was 95.4% and 75.4% and 91.8%, the “SOX2 expressing cells (NSC marker)” value [1, 5] was 62.1% and 21.9% and 63.7% and 43.6% and the “expression of NSC marker SOX2 compared to controls” value [1, 6] was “downregulated”. For the same compound, the “expression of proliferative marker KI67 compared to controls” value [1, 6] was “downregulated”, the ASCL1 expressing cells (VM NPCs; [7]) was 41.1% and 41.7% and 45.8% and 16.2% and 17.3% and 25.6% and 50.4% and 57.1% and 40.5% and 51.8% and 36.0% and the FOXA2 expressing cells (VM NPCs; [7]) was 69.7% and 76.2% and 82.7% and 78.0% and 75.5% and 35.2% and 85.4% and 98.2% and 82.1% and 94.9% and 67.6%. For the same compound, the INA expressing cells (VM NPCs; [7]) was 30.5% and 19.2% and 22.4% and 13.8% and 13.3% and 32.0% and 23.6% and 34.2% and 19% and 45.6% and 18.3%, the “INA+/SOX2− cells” value (VM NPCs; [7]) was 13.8% and 4.7% and 6.2% and 2.6% and 5.0% and 6.0% and 7.3% and 13.6% and 5.7% and 20.1% and 7.0% and the Ki67 expressing cells (VM NPCs; [7]) was 6.4% and 8.1% and 9.7% and 7.8% and 5.2% and 19.8% and 5.9% and 4.8% and 6.0% and 6.6% and 6.1%. The SOX2 expressing cells (VM NPCs; [7]) was 70.9% and 86.3% and 88.3% and 77.2% and 78.5% and 76.4% and 72% and 70.5% and 64.7% and 65.7% and 69.5%, the “ASCL1 expressing cells, Mean” value (VM NPCs; [8]) was 38.5% and the “FOXA2 expressing cells, Mean” value (VM NPCs; [8]) was 76.9%. The “INA expressing cells, Mean” value (VM NPCs; [8]) was 24.7%, the “INA+/SOX2− cells, Mean” value (VM NPCs; [8]) was 8.4% and the “Ki67 expressing cells, Mean” value (VM NPCs; [8]) was 7.9%. For the same compound, the “SOX2 expressing cells, Mean” value (VM NPCs; [8]) was 74.5%, the FOXA2 expressing cells [2, 9] was 85.3% and 72.4% and 93.2% and the “Ki67 expressing cells (proliferative marker)” value [2, 9] was 16.6% and 18.6% and 17.7%. For the same compound, the LMX1A expressing cells [2, 9] was 88.4% and 77.2% and 94.5%, the “SOX2 expressing cells (NSC marker)” value [2, 9] was 59.6% and 57.3% and 65.7% and the “expression of NSC marker SOX2 compared to controls” value [2, 10] was “downregulated”. For the same compound, the “expression of proliferative marker KI67 compared to controls” value [2, 10] was “downregulated”, the “amount of NSCs identified by SOX2 compared to untreated controls” value [3] was “reduced” and the “amount of neuronal cells identified by INA” value [3] was “maintaining”. For the same compound, the “expression of ventral midbrain lineage marker LMX1A” value [3] was “did not prevent”, the “formation of dopamine neurons (TH)” value [3] was “did not prevent” and the “proliferative cells identified by KI67 compared to untreated controls” value [3] was “reduced”. For the same compound, the “proportion of stromal COL1A1 cells compared to control untreated cultures” value [3] was “dramatically reduced”, the “amount of NSCs identified by SOX2 compared to untreated controls” value [4] was “reduced” and the “amount of neuronal cells identified by INA” value [4] was “maintaining”. The “expression of ventral midbrain lineage marker LMX1A” value [4] was “did not prevent”, the “formation of dopamine neurons (TH)” value [4] was “did not prevent” and the “proliferative cells identified by KI67 compared to untreated controls” value [4] was “reduced”. The “proportion of stromal COL1A1 cells compared to control untreated cultures” value [4] was “dramatically reduced”.
